According to patent publication US12630547B2, “RAS protein degraders, pharmaceutical compositions thereof, and their therapeutic applications” (BioTheryX, Inc., priority 2019, dated 2026):
Where two headings read alike, the source gives them in different places.

Key:
Type in all cases: cell-based
MOLM-13 cells = assay: Cell viability assay (CELLTITER-GLO), MOLM-13 cells; conditions: Homo sapiens, MOLM-13, 72 h, 3 days, read-out: Effect on MOLM-13 cell viability (% DMSO); for viability at 10 µM: compound at 10 μM; for viability at 1 µM: Table 3, compound at 1 μM
Procedure, shortened: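 Viability, as % of DMSO control, was read by CellTiter-Glo luminescence after a 3-day compound exposure (single dose of 10 μM or 1 μM) at 37 °C. Cells plated at 4,000/well in RPMI 1640 with 10% FBS. Results reported as categories A <10%, B 10–<25%, C 25–<50%, D ≥50%.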

MV-4-11 cells = assay: Cell viability assay (CELLTITER-GLO), MV-4-11 cells; conditions: Homo sapiens, MV4-11, 72 h; Table 1; compound at 10 μM, 3 days; read-out: Effect on MV-4-11 cell viability (% DMSO)
Experimental: MOLM-13 cells, MV-4-11 cells, H23, and H358 cells were independently cultured in RPMI 1640 media supplemented with 10% fetal bovine serum, streptomycin and penicillin. The cells were plated in white walled 96-well plates at 4,000 cells/well. The cells were incubated in DMSO (control) or a compound for 3 days at 37° C. under 5% CO2. A CELLTITER-GLO® reagent (100 μL) was then added to each well. After a 10 min incubation with shaking, luminescence was measured using an ENVISION® multimode plate reader.
In Tables 1 and 2, each compound was tested at 10 μM; and in Table 3, each compound was tested at 1 μM. In Tables 1 to 3, the cell viability values as % DMSO are reported as “A,” “B,” “C,” or “D;” where “A” represents a % viability value of less than 10%; “B” represents a % viability value of no less than 10% and less than 25%; “C” represents a % viability value of no less than 25% and less than 50%; and “D” represents a % viability value of no less than 50%. Compound A is […]

H358 cells = assay: Cell viability assay (CELLTITER-GLO), H358 cells; conditions: 3 days; for viability at 10 µM: Table 1, compound at 10 μM, read-out: Effect on H358 cell viability (% DMSO)
Procedure, shortened: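 Luminescent ATP read-out (CellTiter-Glo) after 3-day incubation at 37 °C of H358 cells plated at 4,000/well in RPMI 1640 with 10% FBS. Values are either IC50 bins (A ≤1 μM through D >10 μM) or % of DMSO viability at 10 μM or 1 μM, bins A <10% through D ≥50%.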

H23 cells = assay: Cell viability assay (CELLTITER-GLO), H23 cells; conditions: Table 4, 3 days
Procedure, shortened: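 Luminescent CellTiter-Glo readout after 3-day compound treatment (37° C, 5% CO2) of H23 cells plated at 4,000 cells/well in RPMI 1640 plus 10% FBS, DMSO as control. IC50 values given as categorical ranges.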

KRAS protein = target: T1, KRAS protein (Homo sapiens, UniProt P01116, G12C); assay: Protein degradation assay (western blot) in H358 cells; conditions: 1 μM, 24 h
T1 construct: endogenous in cells; host or cells: H358 cells
Experimental: H358 cells were grown in RPMI 1640 media supplemented with 10% fetal bovine serum, streptomycin, and penicillin. The cells were plated in 10 cm plates in the growth media. The next day, the cells were rinsed in 1× PBS with the media replaced by RPMI1640 supplemented with 2.5% fetal bovine serum, streptomycin, and penicillin. The cells were then treated with 1 μM of a compound for 24 h. Whole cell extracts were prepared using an immunoprecipitation (IP) lysis buffer. Briefly, the cells were washed once in PBS, and the cell pellets were resuspended in the IP lysis buffer and incubated for 15 min on ice. Cells debris was removed by centrifugation and the cleared whole cell lysates were transferred to new tubes for further analysis.
For a western blot analysis, the whole cell protein extracts were separated on 12% SDS-polyacrylamide gels, transferred to nitrocellulose, and probed with primary antibodies. Membranes were subsequently washed and probed with IRDYE® secondary antibodies. The signals were detected using an ODYSSEY® Imaging System. The antibodies used in the assay included anti-KRAS; β-actin mouse monoclonal antibody; IRDYE® 680RD goat anti-rabbit antibody; and IRDYE® 800CW goat anti-mouse antibody.

T1 sequence (P01116 1-188 isoform P01116-2 G12C): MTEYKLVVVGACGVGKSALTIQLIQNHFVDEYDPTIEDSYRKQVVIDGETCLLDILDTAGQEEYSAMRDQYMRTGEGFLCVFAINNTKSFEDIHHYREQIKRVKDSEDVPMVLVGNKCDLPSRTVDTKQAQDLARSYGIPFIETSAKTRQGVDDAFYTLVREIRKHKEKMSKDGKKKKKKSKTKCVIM

Row | SMILES | IC50 (H358 cells; Homo sapiens, NCI-H358, 72 h, Table 4, read-out: Inhibition of H358 cells, IC50) [nM] | Inhibition of H358 cells, IC50 (class) (H358 cells; Table 4) | degradation of KRAS protein (KRAS protein) | viability at 10 µM (MOLM-13 cells; Table 1) [%] | viability at 1 µM (MOLM-13 cells) [%] | viability at 10 µM (MV-4-11 cells) [%] | viability at 10 µM (H358 cells; Homo sapiens, NCI-H358, 72 h) [%] | IC50 (H23 cells; Homo sapiens, NCI-H23, 72 h, read-out: Inhibition of H23 cells, IC50) [nM] | Inhibition of H23 cells, IC50 (class) (H23 cells) | viability at 10 µM (MOLM-13 cells; Table 2) [%]
1 | C=CC(=O)N1CCN(c2ncnc3c(F)c(-c4c(O)cccc4F)c(Cl)cc23)CC1 [A, 1-(4-(6-chloro-8-fluoro-7-(2-fluoro-6-hydroxyphenyl)quinazolin-4-yl)piperazin-1-yl)prop-2-en-1-one, reference compound] | 990 |  |  | 25 to 50 | ≥ 50 | 25 to 50 | 25 to 50 | 4300 |  | 
2 | C=CC(=O)N1CCN(c2ncnc3c(F)c(-c4c(F)cccc4OCCOCCOCCC(=O)NCCNc4cccc5c4C(=O)N(C4CCC(=O)NC4=O)C5=O)c(Cl)cc23)CC1 (stereo not shown) [Compound 1, 3-(2-(2-(2-(4-(4-Acryloylpiperazin-1-yl)-6-chloro-8-fluoroquinazolin-7-yl)-3-fluorophenoxy)ethoxy)ethoxy)-N-(2-((2-(2,6-dioxopiperidin-3-yl)-1,3-dioxoisoindolin-4-yl)amino)ethyl)propanamide] |  | C′ |  | 25 to 50 | ≥ 50 | 10 to 25 | 25 to 50 |  | C′ | 
3 | C=CC(=O)N1CC(N2Cc3ccc(-c4cc(O)cc5ccccc45)cc3N(CCOCCOCCOCCNc3cccc4c3C(=O)N(C3CCC(=O)NC3=O)C4=O)C2=O)C1 (stereo not shown) [Compound 2, 4-((2-(2-(2-(2-(3-(1-Acryloylazetidin-3-yl)-7-(3-hydroxynaphthalen-1-yl)-2-oxo-3,4-dihydroquinazolin-1(2H)-yl)ethoxy)ethoxy)ethoxy)ethyl)amino)-2-(2,6-dioxopiperidin-3-yl)isoindoline-1,3-dione] |  |  |  | 10 to 25 |  | < 10 | 10 to 25 |  |  | 
4 | C=C(Cl)C(=O)N1CCN(c2ncnc3c(F)c(-c4c(F)cccc4OCCC4CCC(CCN5CCC(c6cc(F)cc7c6CN(C6CCC(=O)NC6=O)C7=O)CC5)CC4)c(Cl)cc23)C[C@H]1CC#N (stereo partly drawn) [Compound 129, 2-((2R)-4-(6-Chloro-7-(2-(2-(4-(2-(4-(2-(2,6-dioxopiperidin-3-yl)-6-fluoro-1-oxoisoindolin-4-yl)piperidin-1-yl)ethyl)cyclohexyl)ethoxy)-6-fluorophenyl)-8-fluoroquinazolin-4-yl)-1-(2-chloroacryloyl)piperazin-2-yl)acetonitrile] |  | A′ |  |  |  |  |  |  | B′ | < 10
5 | CCC(=O)N1CCN(c2ncnc3c(F)c(-c4c(F)cccc4OCCNCC(=O)N4CCC(C#Cc5cccc6c5CN(C5CCC(=O)NC5=O)C6=O)CC4)c(Cl)cc23)CC1 (stereo not shown) [Compound 133, 3-(4-((1-((2-(2-(6-Chloro-8-fluoro-4-(4-propionylpiperazin-1-yl)quinazolin-7-yl)-3-fluorophenoxy)ethyl)glycyl)piperidin-4-yl)-1λ^5-ethynyl)-1-oxoisoindolin-2-yl)piperidine-2,6-dione] |  | D′ |  |  |  |  |  |  | D′ | ≥ 50

Continued, in another order:

Row | IC50 (H358 cells; Homo sapiens, NCI-H358, 72 h, Table 4, read-out: Inhibition of H358 cells, IC50) [nM] | Inhibition of H358 cells, IC50 (class) (H358 cells; Table 4) | degradation of KRAS protein (KRAS protein) | SMILES | viability at 10 µM (MOLM-13 cells; Table 1) [%] | viability at 1 µM (MOLM-13 cells) [%] | viability at 10 µM (MV-4-11 cells) [%] | viability at 10 µM (H358 cells; Homo sapiens, NCI-H358, 72 h) [%] | IC50 (H23 cells; Homo sapiens, NCI-H23, 72 h, read-out: Inhibition of H23 cells, IC50) [nM] | Inhibition of H23 cells, IC50 (class) (H23 cells) | viability at 10 µM (MOLM-13 cells; Table 2) [%]
6 |  | A′ | about 60% | C=CC(=O)N1CCN(c2ncnc3c(F)c(-c4c(F)cccc4OCCCCCCCN4CCC(c5cc(F)cc6c5CN(C5CCC(=O)NC5=O)C6=O)CC4)c(Cl)cc23)CC1 (stereo not shown) [Compound 36, 3-(4-(1-(7-(2-(4-(4-Acryloylpiperazin-1-yl)-6-chloro-8-fluoroquinazolin-7-yl)-3-fluorophenoxy)heptyl)piperidin-4-yl)-6-fluoro-1-oxoisoindolin-2-yl)piperidine-2,6-dione] |  |  |  |  |  | A′ | < 10
7 |  | B′ |  | C=C(Cl)C(=O)N1CCN(c2ncnc3c(F)c(-c4c(F)cccc4OCCC4CCC(CCN5CCC(c6cc(F)cc7c6CN(C6CCC(=O)NC6=O)C7=O)CC5)C4)c(Cl)cc23)CC1 (stereo not shown) [Compound 130, 3-(4-(1-(2-(3-(2-(2-(6-Chloro-4-(4-(2-chloroacryloyl)piperazin-1-yl)-8-fluoroquinazolin-7-yl)-3-fluorophenoxy)ethyl)cyclopentyl)ethyl)piperidin-4-yl)-6-fluoro-1-oxoisoindolin-2-yl)piperidine-2,6-dione] |  |  |  |  |  | A′ | < 10
